How the values were obtained:
MDA-MB-231 = system: MDA-MB-231; design: method as in PMID 32690258; settings: MDA-MB-231, in vitro; cited from earlier work
Stability in mice plasma = format: in vitro ADME, KM mice; settings: 37 °C, 453 μg/L
Procedure: (§1) A total of 696.5 μL of plasma from each species (healthy mice, rat, dog, monkey, and human) were spiked with 3.5 μL of TPB15 stock solution ([…] in DMSO), resulting in a final TPB15 concentration of 453 μg/L in plasma. The mixture was then aliquoted into three tubes, each with a volume of 200 μL, maintaining a final DMSO concentration of 0.5%. After incubation in a water bath at 37 °C for 0, 30, 60, 90, and 120 min, 100 µL samples were transferred into EP tubes. Subsequently, 10 µL of internal standard working solution were added, followed by vortex mixing. Then, 500 µL of ethyl acetate were added, and the mixture was vortexed again before being centrifuged at 14,800 rpm at 4 °C for 10 min. A total of 400 µL of the supernatant were transferred into a new EP tube and placed in a vacuum concentrator (Bionoon-VAC2) (Bionoon Biotech, Shanghai, China) to dry for 1 h. The dried residue was reconstituted with 100 µL of mobile phase, vortex mixed thoroughly, and centrifuged again at 14,800 rpm at 4 °C for 10 min. A volume of 5 µL of the supernatant was then taken for LC-MS/MS analysis to determine the drug concentration. Additionally, a blank control group was established, in which PBS buffer was used in place of blank plasma in the incubation system.

[1] = Stability in monkey plasma; format: in vitro ADME, cynomolgus monkey; settings: 37 °C, 453 μg/L
Procedure: as §1

[2] = design: method as in PMID 39158678; settings: pharmacokinetic studies in rats; cited from earlier work
[3] = Plasma protein binding by ultrafiltration, rat plasma; format: in vitro ADME, SD rat
Procedure: (§2) To prepare plasma samples of TPB15 at final concentrations of 4, 8, and 16 μg/mL, 1 μL of TPB15 dissolved in dimethyl sulfoxide (DMSO) at low (400 μg/mL), medium (800 μg/mL), and high (1600 μg/mL) concentrations was added to 99 μL of blank plasma obtained from humans, rats, mice, monkeys, and dogs. Each concentration was prepared in six replicates. The samples were then divided into two groups: one for determining the pre-ultrafiltration concentration (Cpre) and the other for measuring the post-ultrafiltration concentration (Ct), following the evaluation of the non-specific binding coefficient (NSB) of TPB15 to the ultrafiltration tubes. For Cpre determination, 10 μL of the sample was mixed with 990 μL of plasma, vortexed thoroughly, and analyzed for drug concentration using the previously reported liquid chromatography–tandem mass spectrometry (LC-MS/MS) method. For Ct determination, the samples were first incubated in a water bath at 37 °C for 3 h. After incubation, they were transferred to ultrafiltration tubes and centrifuged at 14,000 rpm for 20 min at 4 °C using a centrifuge (Sigma 3K-15) from Sigma Laborzentrifugen GmbH (Osterode am Harz, Germany). After centrifugation, 10 μL of the ultrafiltrate was mixed with 990 μL of plasma, vortexed, and analyzed for concentration using the same LC-MS/MS method. The formula for calculating the plasma protein binding rate (PPB) is as follows: PPB (%) = [1 − Ct/(1 − NSB)/Cpre] × 100%. (NSB: non-specific binding coefficient. […]).

[4] = Plasma protein binding by ultrafiltration, monkey plasma; format: in vitro ADME, cynomolgus monkey
Procedure: as §2

Smo = system: Smo; design: method as in PMID 32690258; settings: preliminary studies; cited from earlier work
[5] = Metabolic stability in rat liver microsomes (RLM); format: in vitro ADME, Sprague-Dawley rat
Procedure: (§3) A total of 450 μL liver microsomes from mice, rat, dog, monkey, and human were spiked with 0.5 μL of TPB15 solution and pre-incubated in a water bath at 37 °C for 10 min. Following this, 50 μL of NADPH were added to initiate the reaction. The concentrations of each substance in the incubation system are detailed in Table 1. After initiating the metabolic reaction, 50 μL aliquots were removed at incubation times of 0, 5, 15, 30, 45, 60, and 90 min and transferred to 150 μL of icy methanol solution containing the internal standard to terminate the reaction. The mixtures were swirled for 2 min and then centrifuged at 14,800 rpm at 4 °C for 10 min. […] Three samples were prepared in parallel at each time point. Additionally, both a positive control group and a blank control group were established. In the positive control group, substrate testosterone was incubated with liver microsomes from mice, rat, dog, monkey, and human. The concentrations of substrate testosterone were measured at 0 and 90 min, and the changes in concentration before and after incubation were compared to confirm the activity of the liver microsomes. The blank control group included one drug-containing inactivated liver microsome sample for each species. The metabolic stability parameters, including in vitro elimination half-life (T1/2) and in vitro intrinsic clearance rate (CLint), were calculated based on this graph using the following formulas: in vitro elimination half-life (T1/2) = −0.693/k and in vitro intrinsic clearance rate (CLint) = (0.693 × incubation medium (mL))/(liver microsomes (mg) × T1/2).

mice = system: mice; design: method as in PMID 32690258; settings: acute toxicity; cited from earlier work
[6] = Metabolic stability in dog liver microsomes (DLM); format: in vitro ADME, beagle dog
Procedure: as §3

[7] = Metabolic stability in mouse liver microsomes (MouLM); format: in vitro ADME, KM mice
Procedure: as §3

[8] = system: CYP450 enzymes in human liver microsomes; assay: Metabolic enzyme phenotype of TPB15 in human liver microsomes with selective CYP450 inhibitors; format: in vitro ADME
Procedure: The specific procedure was as follows: a total of 0.5 μL of the substrate TPB15 and 0.5 μL of each specific inhibitor were mixed with 449 μL of human liver microsomes, and the mixture was incubated at 37 °C for 10 min. Subsequently, 50 μL of NADPH with a concentration of 10 mM in PBS were introduced to initiate the reaction. After 90 min, 50 μL of the reaction mixture were transferred to a 150 μL ice-cold methanol solution containing an internal standard to terminate the reaction. The mixture was vortexed for 2 min and then centrifuged at 4 °C at 14,800 rpm for 10 min. A volume of 130 μL of the supernatant was then transferred to a new EP tube, which was centrifuged again at 4 °C at 14,800 rpm for another 10 min. Finally, 5 μL of the supernatant were injected for the determination of substrate TPB15 concentration. Three parallel samples were prepared for each time point. The experiment also included a positive control group and a negative control group. In the positive control group, substrate TPB15 was incubated with human liver microsomes for 90 min without the addition of inhibitors. In the negative control group, the substrate TPB15 was incubated for 90 min without inhibitors, with human liver microsomes replaced by an equal volume of phosphate-buffered saline (PBS). The metabolic rate of TPB15 in human liver microsomes was represented by the elimination rate of the substrate TPB15.

Structure (SMILES): O=C(Nc1ccc(Cl)c(-c2nnc3c(Cl)cccn23)c1)c1ccc(Cl)nc1Cl [TPB15]
- inhibition of proliferation of TNBC cell line (MDA-MB-231): significantly inhibits the proliferation
- Remaining proportion of substrate TPB15 (%) KM mice (Stability in mice plasma; incubation 0 min): 100.0 ± 0.7%
- Remaining proportion of substrate TPB15 (%) KM mice (Stability in mice plasma; incubation 30 min): 98.6 ± 0.9%
- Remaining proportion of substrate TPB15 (%) KM mice (Stability in mice plasma; incubation 60 min): 98.0 ±1.5%
- Remaining proportion of substrate TPB15 (%) KM mice (Stability in mice plasma; incubation 90 min): 97.1 ± 0.7%
- Remaining proportion of substrate TPB15 (%) KM mice (Stability in mice plasma; incubation 120 min): 98.0 ± 1.2%
- Remaining proportion of substrate TPB15 (%) Cynomolgus monkey ([1]; incubation 0 min): 100.0 ± 1.7%
- Remaining proportion of substrate TPB15 (%) Cynomolgus monkey ([1]; incubation 30 min): 98.2 ± 0.6%
- Remaining proportion of substrate TPB15 (%) Cynomolgus monkey ([1]; incubation 60 min): 96.3 ± 1.2%
- Remaining proportion of substrate TPB15 (%) Cynomolgus monkey ([1]; incubation 90 min): 99.3 ± 0.9%
- Remaining proportion of substrate TPB15 (%) Cynomolgus monkey ([1]; incubation 120 min): 98.3 ± 1.5%
- half-life in rats [2]: relatively long half-life
- fraction unbound at 3 h ([3]; SD, rat plasma, 4 to 16 μg/mL, read-out: average plasma protein binding rates, range over concentrations): 0.176 to 0.191
- fraction unbound at 3 h, 4 μg/mL ([3]; Sprague-Dawley, rat, plasma, 4 μg/mL TPB15, ultrafiltration, 37 °C 3 h, read-out: Plasma Protein Binding (%) SD Rat (converted)): 0.183
- fraction unbound at 3 h, 8 μg/mL ([3]; Sprague-Dawley, rat, plasma, 8 μg/mL TPB15, ultrafiltration, 37 °C 3 h, read-out: Plasma Protein Binding (%) SD Rat (converted)): 0.191
- fraction unbound at 3 h, 16 μg/mL ([3]; Sprague-Dawley, rat, plasma, 16 μg/mL TPB15, ultrafiltration, 37 °C 3 h, read-out: Plasma Protein Binding (%) SD Rat (converted)): 0.176
- fraction unbound at 3 h, 4 μg/mL ([4]; cynomolgus monkey, plasma, 4 μg/mL TPB15, ultrafiltration, 37 °C 3 h): 0.185
- fraction unbound at 3 h, 8 μg/mL ([4]; cynomolgus monkey, plasma, 8 μg/mL TPB15, ultrafiltration, 37 °C 3 h): 0.188
- fraction unbound at 3 h, 16 μg/mL ([4]; cynomolgus monkey, plasma, 16 μg/mL TPB15, ultrafiltration, 37 °C 3 h): 0.178
- fraction unbound at 3 h ([4]; monkey plasma, 4 to 16 μg/mL, read-out: average plasma protein binding rates, range over concentrations): 0.178 to 0.188
- binding to the Smo target (Smo): effectively binds to the Smo target
- remaining proportion of TPB15 in liver microsomes ([5]; Sprague-Dawley rat microsomes, 90 min, 5 μM TPB15, 0.5 mg/mL, NADPH 1 mM): 76.0 ± 0.89%
- microsomal CLint at 5 μM ([5]; Sprague-Dawley, rat, liver microsomes, RLM, 5 μM TPB15, 0.5 mg/mL microsomes, read-out: CLint (mL/min/mg), in vitro intrinsic clearance rate): 0.0344 mL/min/mg
- lethal dose for 50% of the population (LD50) (mice): 3875.35 mg/kg
- remaining proportion of TPB15 in liver microsomes ([6]; beagle dog microsomes, 90 min, 5 μM TPB15, 0.5 mg/mL, NADPH 1 mM): 90.3 ± 3.54%
- microsomal CLint at 5 μM ([6]; beagle, dog, liver microsomes, DLM, 5 μM TPB15, 0.5 mg/mL microsomes, read-out: CLint (mL/min/mg), in vitro intrinsic clearance rate): 0.0132 mL/min/mg
- half-life at 5 μM ([6]; beagle, dog, liver microsomes, DLM, 5 μM TPB15, 0.5 mg/mL microsomes, read-out: T1/2 (min), in vitro elimination half-life): 630 min
- remaining proportion of TPB15 in liver microsomes ([7]; KM mice microsomes, 90 min, 5 μM TPB15, 0.5 mg/mL, NADPH 1 mM): 80.0 ± 5.93%
- microsomal CLint at 5 μM ([7]; KM, mouse, liver microsomes, MouLM, 5 μM TPB15, 0.5 mg/mL microsomes, read-out: CLint (mL/min/mg), in vitro intrinsic clearance rate): 0.0273 mL/min/mg
- primary metabolic enzymes involved in TPB15 metabolism [8]: CYP2C9 and CYP3A4

Source: article PMC12030497, “Plasma Protein Binding, Biostability, Metabolite Profiling, and CYP450 Phenotype of TPB15 Across Different Species: A Novel Smoothened Inhibitor for TNBC Therapy” (Pharmaceutics, 2025)
